This passage reports inhibition, IC50 and response vs control in vivo results from patent publication US5523314A, “Compounds useful as hypoglycemic agents and for treating Alzheimer's disease” (priority 1994, dated 1996).

Read-outs that look alike come from different tables or passages of the source.

In assay [1] the test system is β-amyloid protein. In words: β-amyloid protein production inhibition in 293 751 SWE and CHO 751 SWE cells, ELISA (Table 7). Format: cell-based. The following applies: normalized for cytotoxicity; for inhibition at 10 µg/mL (stock): Compound Stock Concentration 10.0 μg/ml; for inhibition at 0.31 µg/mL (stock): Compound Stock Concentration 0.31 μg/ml; for inhibition at 0.62 µg/mL (stock): Compound Stock Concentration 0.62 μg/ml; for inhibition at 1.25 µg/mL (stock): Compound Stock Concentration 1.25 μg/ml; for inhibition at 2.5 µg/mL (stock): Compound Stock Concentration 2.5 μg/ml; for inhibition at 5 µg/mL (stock): Compound Stock Concentration 5.0 μg/ml. As for the experimental part:
Two cell lines (human kidney cell line 293 and Chinese hamster ovary cell line CHO) were stably transfected with the gene for APP751 containing the double mutation Lys-651-Met-652 to Asn-651-Leu-652 (APP-751 numbering) commonly called the Swedish mutation using the method described in Citron et al., Nature 360:672-674 (1992). The transfected cell lines were designated as 293 751 SWE and CHO 751 SWE, and were plated in Corning 96 well plates at 2.5×10^4 or 1×10^4 cells per well respectively in Dulbecco's minimal essential media (DMEM) plus 10% fetal bovine serum. […] These compound stocks were prepared by dissolving a sufficient quantity of the particular compound to be tested in DMSO such that various concentrations were obtained. After this pretreatment period, the conditioned media was removed and replaced with fresh conditioned media and the cells were incubated for an additional two hours.
After treatment, plates were centrifuged in a Beckman GPR at 1200 rpm for five minutes at room temperature to pellet cellular debris from the conditioned media. From each well, 100 μL of conditioned media were transferred into an ELISA plate precoated with antibody 266 [Seubert et al., Nature, 359:325-327 (1992)] and stored at 4° C. overnight prior to the completion of the ELISA assay the next day.
Cytotoxic effects of the compounds were measured by a modification of the method of Hansen et al., J. Immun. Meth. 119:203-210 (1989). To the cells remaining in the tissue culture plate, was added 25 μL of a 3-(4,5-dimethylthiazol-2-yl)-2,5-diphenyltetrazolium bromide (MTT) stock solution (5 mg/mL) to a final concentration of 1 mg/mL. Cells were incubated at 37° C. for one hour, and cellular activity was stopped by the addition of an equal volume of MTT lysis buffer (20% w/v sodium dodecylsulfate in 50% DMF, pH 4.7). Complete extraction was achieved by overnight shaking at room temperature. The difference in the OD562nm and the OD650nm was measured in a Molecular Devices UVmax microplate reader as an indicator of the cellular viability.
The results of the β-amyloid protein ELISA were fit to a standard curve and expressed as ng/mL β-amyloid protein peptide. In order to normalize for cytotoxicity, these β-amyloid protein results were divided by the cytotoxicity results and expressed as a percentage of the results from a drug-free control.
On the technique in general: ELISA stands for enzyme-linked immunosorbent assay.

The target of assay [2] is T1, Human liver cathepsin D (Homo sapiens, UniProt P07339).
T1 construct: purchased Athens Research and Technology, Athens, Ga; host or cells: human liver
In words: Cathepsin D inhibition, fluorometric assay (Tables 5 and 6). It is filed as biochemical. The settings on record: for inhibition at 8.3 µg/mL (stock): Compound Stock Concentration 8.3 μg/ml; for inhibition at 4.15 µg/mL (stock): Compound Stock Concentration 4.15 μg/ml; for inhibition at 10 µg/mL (stock): Compound Stock Concentration 10.0 μg/ml. On the procedure: Human liver cathepsin D (Athens Research and Technology, Athens, Ga.) was diluted in assay buffer, 200 mM NaOAc, pH 4.5, 150 mM NaCl to 500 ng/mL and then 100 μL of this cathepsin D solution was added to each well of a 96 well plate with the exception of control wells which received just 100 μL of assay buffer. […] Blank and enzyme control wells each received 5 μL of the DMSO vehicle.
After incubation at 37° C. for 30 minutes, cathepsin D activity was terminated by the addition of 100 μL per well of 400 mU/mL microsomal leucine aminopeptidase (EC 3.4.11.2, Sigma, St. Louis, Mo.) in 1M Tris-HCl, pH 8.0.
Following a two hour incubation at 37° C., to allow the aminopeptidase to release the fluorophore, 7-amido-4-methylcoumarin (AMC) from the products of cathepsin D cleavage, the plates were again analyzed in the fluorometer. In order to check for potential false positives, i.e., inhibitors of microsomal leucine aminopeptidase, residual aminopeptidase activity was monitored directly in each well by the addition of 20 μL/well of 2.5 mM Leu-pNA (Bachem Biosciences, Philadelphia, Pa.) in 10% DMSO.

The subject of assay [3] is blood glucose level. In words: Hypoglycemic activity in normal fed rats (Table 2). The settings on record: Rattus norvegicus, oral. It is filed as in vivo, male Sprague Dawley rats. As for the experimental part:
The procedure used in this test system is described below.
The desired dose level of each test formulation was administered to four rats by oral […] at the beginning of the experiment. Blood glucose levels were determined immediately before the first dose and at 3 and 5 hours thereafter by an enzymatic procedure employing glucose oxidase and peroxidase coupled with a chromogenic oxygen acceptor. A mean was taken of the 4 values obtained before the first dose and at the 3 and 5 hour intervals.

The subject of assay [4] is blood glucose level. In words: Hypoglycemic activity in obese diabetic mice (Table 1). Format: in vivo, male viable yellow obese-diabetic mice. The settings on record: Mus musculus, ip, intraperitoneal. Summed up: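 Male viable yellow obese-diabetic mice, six per group, dosed intraperitoneally once with compound in saline containing 2% Emulphor. Blood glucose measured by glucose oxidase before dosing and at 2 and 4 h. Values are the 2 h and 4 h glucose as % of pre-dose level.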

Where [5] appears, read: 3 hrs, read-out: Percent of Initial Blood Glucose Level After 3 hrs.
The mark [6] stands for this setting: 5 hrs, read-out: Percent of Initial Blood Glucose Level After 5 hrs.
Setting [7] is: 2 h, 2 hrs, read-out: Percent of Initial Blood Glucose Level After 2 hrs.
Setting [8] is: 4 h, 4 hrs, read-out: Percent of Initial Blood Glucose Level After 4 hrs.

T1 sequence (P07339 169-412 limits assumed): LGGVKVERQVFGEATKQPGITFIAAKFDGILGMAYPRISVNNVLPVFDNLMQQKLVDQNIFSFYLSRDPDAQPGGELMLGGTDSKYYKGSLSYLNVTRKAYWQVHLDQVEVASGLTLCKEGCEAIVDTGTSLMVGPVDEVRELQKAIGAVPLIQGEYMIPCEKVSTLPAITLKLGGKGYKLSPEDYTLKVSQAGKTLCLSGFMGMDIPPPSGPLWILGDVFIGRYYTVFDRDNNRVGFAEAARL
T1 sequence (P07339 65-161 limits assumed): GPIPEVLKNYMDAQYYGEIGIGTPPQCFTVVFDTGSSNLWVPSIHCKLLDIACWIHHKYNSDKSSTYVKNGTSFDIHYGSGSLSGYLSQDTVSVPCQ

With `CCCCCCCOc1ccc(C=C2SC(=S)N(N(C)C)C2=O)cc1OC` [Example 81, 5-[(3-methoxy-4-heptoxyphenyl)methylene]-2-thioxo-3-dimethylamino-4-thiazolidinone], the inhibition (as a rule, the drop in the measured response relative to a control, in per cent) at 10 µg/mL (stock) in assay [1] is 100%. In addition, in assay [2], 319 µM corresponded to half-maximal inhibition (IC50) and the inhibition at 8.3 µg/mL (stock) came out at 21%.
Regarding `O=C1NC(=S)SC1=Cc1cccc(Oc2ccccc2)c1` [Example 77, 5-[(3-phenoxyphenyl)methylene]-2-thioxo-4-thiazolidinone], in assay [1], the inhibition at 10 µg/mL (stock) turned out to be 25%. In addition, in assay [2], the IC50 (commonly the concentration at which inhibition is half-maximal) came to 3.7 µM, the inhibition at 4.15 µg/mL (stock) turned out to be 64% and the inhibition at 10 µg/mL (stock) was found to be 87%.
In the case of `CCCCCCCCOc1ccc(C=C2SC(=S)NC2=O)cc1OC` [Example 69, 5-[(3-methoxy-4-octoxyphenyl)methylene]-2-thioxo-4-thiazolidinone], the response vs control in vivo at 200 mg/kg in assay [3] (setting [5]) came out at 93%. The response vs control in vivo at 200 mg/kg in assay [3] (setting [6]) was found to be 88%. Also, in assay [2], the IC50 was 2.1 µM and the inhibition at 4.15 µg/mL (stock) is 51%.
The matching figures for `CCCCCCOc1ccc(C=C2SC(=S)NC2=O)cc1OC` [Example 68, 5-[(3-methoxy-4-hexoxyphenyl)methylene]-2-thioxo-4-thiazolidinone]: 88%, 89%, 10.2 µM and 53.7%.
Consider `CCOc1cc(C=C2SC(=S)NC2=O)ccc1O` [Example 32, 5-[(3-ethoxy-4-hydroxyphenyl)methylene]-2-thioxo-4-thiazolidinone], for which the response vs control in vivo at 50 mg/kg in assay [4] (setting [7]) worked out at 75 ± 4%; in assay [4] (setting [8]), 80 ± 8%. Further, the figures for the response vs control in vivo at 200 mg/kg in assay [3] (setting [5]) and in assay [3] (setting [6]) were 100% and 96%, respectively. The molecule also gave an inhibition at 4.15 µg/mL (stock) in assay [2] of 75%.
As for `O=C1NC(=S)SC1=Cc1ccc(-c2ccccc2)cc1` [Example 42, 5-[[(1,1'-biphenyl)-4-yl]methylene]-2-thioxo-4-thiazolidinone], the response vs control in vivo at 50 mg/kg in assay [4] (setting [7]) amounted to 87 ± 8%. Also, the response vs control in vivo at 50 mg/kg in assay [4] (setting [8]) was 70 ± 8%. Moreover, in assay [1], the inhibition at 0.31 µg/mL (stock) was 8%, the inhibition at 0.62 µg/mL (stock) stood at 11%, the inhibition at 1.25 µg/mL (stock) is 14% and the inhibition at 2.5 µg/mL (stock) was 16%. In assay [1], this molecule returned an inhibition at 5 µg/mL (stock) of 35% and an inhibition at 10 µg/mL (stock) of 51%. Also, in assay [2], inhibition was half-maximal at 1.7 µM (IC50), the inhibition at 4.15 µg/mL (stock) was found to be 78% and the inhibition at 10 µg/mL (stock) is 87.5%.
Regarding `O=C1NC(=S)SC1=Cc1ccc(Oc2ccccc2)cc1` [Example 5, 5-[(4-phenoxyphenyl)methylene]-2-thioxo-4-thiazolidinone], the response vs control in vivo at 50 mg/kg in assay [4] (setting [7]) came to 79 ± 4%; in assay [4] (setting [8]) it was 71 ± 3%. In addition, the inhibition at 10 µg/mL (stock) in assay [1] came to 47%; in assay [2], 76%. Also, in assay [2], the IC50 stood at 3.6 µM. In assay [2], this molecule displayed an inhibition at 8.3 µg/mL (stock) of 100%.
As to `COc1cccc(C=C2SC(=S)NC2=O)c1OC` [Example 24, 5-[(2,3-dimethoxyphenyl)methylene]-2-thioxo-4-thiazolidinone], the values for the response vs control in vivo at 50 mg/kg in assay [4] (setting [7]) and in assay [4] (setting [8]) were 78 ± 4% and 80 ± 5%, respectively. Besides, the response vs control in vivo at 200 mg/kg in assay [3] (setting [5]) and in assay [3] (setting [6]) was 100% each time.
With `CCOc1ccc(C=C2SC(=S)NC2=O)cc1OC` [Example 48, 5-[(3-methoxy-4-ethoxyphenyl)methylene]-2-thioxo-4-thiazolidinone], the response vs control in vivo at 25 mg/kg in assay [4] (setting [7]) was determined as 87 ± 4%; in assay [4] (setting [8]), 81 ± 5%. For the same molecule, the results for the response vs control in vivo at 50 mg/kg in assay [4] (setting [7]) and in assay [4] (setting [8]) were 70 ± 3% and 65 ± 3%, respectively. Also, the results for the response vs control in vivo at 167 mg/kg in assay [3] (setting [5]) and in assay [3] (setting [6]) were 87% and 81%, respectively.
For `CCCCCCCOc1ccc(C=C2SC(=S)NC2=O)cc1OC` [Example 31, 5-[(3-methoxy-4-heptoxyphenyl)methylene]-2-thioxo-4-thiazolidinone], in assay [4] (setting [7]), the response vs control in vivo at 50 mg/kg was 76 ± 7%. For the same molecule, the response vs control in vivo at 50 mg/kg in assay [4] (setting [8]) was found to be 76 ± 5%. In assay [1], this molecule yielded an inhibition at 0.31 µg/mL (stock) of 0%, an inhibition at 0.62 µg/mL (stock) of 7%, an inhibition at 1.25 µg/mL (stock) of 15% and an inhibition at 2.5 µg/mL (stock) of 28%. In assay [1], this molecule showed an inhibition at 5 µg/mL (stock) of 37% and an inhibition at 10 µg/mL (stock) of 57%. The response vs control in vivo at 200 mg/kg in assay [3] (setting [5]) came to 95%. In assay [3] (setting [6]), the response vs control in vivo at 200 mg/kg was 92%. In addition, in assay [2], it took 1.9 µM to reach half-maximal inhibition (IC50), the inhibition at 4.15 µg/mL (stock) is 69.5% and the inhibition at 10 µg/mL (stock) was found to be 88.5%.
As for `COc1ccccc1C=C1SC(=S)NC1=O` [Example 26, 5-[(2-methoxyphenyl)methylene]-2-thioxo-4-thiazolidinone], the response vs control in vivo at 50 mg/kg in assay [4] (setting [7]) came to 80 ± 4%; in assay [4] (setting [8]), 75 ± 2%. Besides, the response vs control in vivo at 200 mg/kg in assay [3] (setting [5]) and in assay [3] (setting [6]) was 100% each time.
As to `COc1cc(C=C2SC(=S)NC2=O)cc(OC)c1O` [Example 63, 5-[(3,5-dimethoxy-4-hydroxyphenyl)methylene]-2-thioxo-4-thiazolidinone], the response vs control in vivo at 200 mg/kg in assay [3] (setting [5]) was found to be 69%; in assay [3] (setting [6]), 52%. The same molecule yielded an inhibition at 4.15 µg/mL (stock) in assay [2] of 53%.
